Reference: patent US20130345205A1, “SUBSTITUTED BICYCLIC ARALKYL PYRAZOLE LACTAM ANALOGS AS ALLOSTERIC MODULATORS OF MGLUR5 RECEPTORS” (Vanderbilt University, priority 2012, published 2013)
pEC50: −log10 of the molar value.

Legend:
human mGluR5 = human mGluR5 (Homo sapiens, UniProt P41594); experiment: Cell-based functional Ca2+ mobilization assay (FDSS), potentiation of glutamate EC20 response; conditions: H10H cell-line (HEK, recombinant human mGluR5); for Emax: glutamate EC20, maximum average response at a single concentration, percent of maximal glutamate response; for pEC50: positive allosteric modulation in presence of glutamate EC20, concentration in mol/L
Sequence of human mGluR5 (P41594 21-1180 isoform P41594-2 limits assumed): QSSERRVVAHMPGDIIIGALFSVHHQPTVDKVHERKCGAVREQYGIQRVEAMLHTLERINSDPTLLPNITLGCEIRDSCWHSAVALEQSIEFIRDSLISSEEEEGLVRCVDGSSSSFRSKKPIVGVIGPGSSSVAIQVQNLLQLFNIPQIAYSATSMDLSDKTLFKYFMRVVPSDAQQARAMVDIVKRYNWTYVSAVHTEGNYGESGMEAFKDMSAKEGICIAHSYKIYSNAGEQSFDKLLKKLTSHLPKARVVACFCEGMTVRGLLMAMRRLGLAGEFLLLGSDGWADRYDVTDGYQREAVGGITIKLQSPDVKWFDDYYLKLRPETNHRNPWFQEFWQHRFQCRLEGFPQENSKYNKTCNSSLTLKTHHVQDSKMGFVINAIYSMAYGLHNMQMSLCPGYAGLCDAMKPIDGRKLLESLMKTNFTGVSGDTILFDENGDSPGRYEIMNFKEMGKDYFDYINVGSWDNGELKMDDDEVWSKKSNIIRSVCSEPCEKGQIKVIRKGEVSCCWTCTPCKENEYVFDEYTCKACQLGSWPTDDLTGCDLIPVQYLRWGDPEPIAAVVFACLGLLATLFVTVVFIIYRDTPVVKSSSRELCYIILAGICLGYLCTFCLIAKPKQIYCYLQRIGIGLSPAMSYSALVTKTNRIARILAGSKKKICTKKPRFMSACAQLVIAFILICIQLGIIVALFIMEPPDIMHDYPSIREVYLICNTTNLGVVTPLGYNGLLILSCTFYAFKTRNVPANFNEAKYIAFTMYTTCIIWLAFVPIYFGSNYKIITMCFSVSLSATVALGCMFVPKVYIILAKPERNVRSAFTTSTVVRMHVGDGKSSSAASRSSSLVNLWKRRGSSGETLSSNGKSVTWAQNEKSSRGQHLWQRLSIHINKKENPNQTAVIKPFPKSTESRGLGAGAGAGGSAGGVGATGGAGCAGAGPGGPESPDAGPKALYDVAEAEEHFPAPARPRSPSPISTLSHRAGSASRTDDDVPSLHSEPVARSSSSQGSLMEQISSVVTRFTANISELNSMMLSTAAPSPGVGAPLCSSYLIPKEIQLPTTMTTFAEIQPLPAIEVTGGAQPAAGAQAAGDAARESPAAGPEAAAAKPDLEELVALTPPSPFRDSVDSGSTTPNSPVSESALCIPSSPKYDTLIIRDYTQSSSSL
Excerpt: Human mGluR5a cDNA in pCMV6-XL6 mammalian expression plasmid was purchased from OriGene Technologies, Inc. (catalogue number SC326357) and subcloned into pcDNA3.1(−). Human embryonic kidney (HEK) 293A cells were then transfected with human mGluR5a pcDNA3.1(−) using LipofectAmine2000 (Invitrogen) and monoclones were selected and tested for functional response using a Ca^2+ mobilization assay. Monoclones were named for the species (“H” for human) plus the location on the plate (e.g. “10H”).
HEK cells transfected with the human mGluR5a receptor (H10H or H12H cell line) were plated at 15,000 cells/well in clear-bottomed poly-D-lysine-coated assay plates (BD Falcon) in glutamate-glutamine-free growth medium and incubated overnight at 37° C. and 5% CO2. Cell-lines used were either the H10H or H12H cell-lines expressing the human mGluR5 receptor. The following day, the growth medium was removed and the cells were washed with assay buffer containing 1× Hank's balanced salt solution (Invitrogen, Carlsbad, Calif.), 20 mM HEPES, 2.5 mM probenecid, pH 7.4 and left with 20 μL of this reagent. Following this step, the cells were loaded with calcium indicator dye, fluo-4 AM, to a final concentration of 2 μM and incubated for 40-45 min at 37° C. The dye solution was removed and replaced with assay buffer. Cell plates were held for 10-15 min at room temperature and were then loaded into the Functional Drug Screening System 6000 (FDSS 6000, Hamamatsu, Japan).
After establishment of a fluorescence baseline for about 3 seconds, the compounds of the present invention were added to the cells, and the response in cells was measured. 2.3 minutes later an EC20 concentration of the mGluR5 receptor agonist glutamate was added to the cells, and the response of the cells was measured for about 1.7 minutes. All test compounds were dissolved and diluted to a concentration of 10 mM in 100% DMSO and then serially diluted into assay buffer for a 2× stock solution in 0.6% DMSO; stock compounds were then added to the assay for a final DMSO concentration of 0.3% after the first addition to the assay well. Calcium fluorescence measures were recorded as fold over basal fluorescence; raw data was then normalized to the maximal response to glutamate. Potentiation of the agonist response of the mGluR5 receptor in the present invention was observed as an increase in response to submaximal concentrations of glutamate in the presence of compound compared to the response to glutamate in the absence of compound.
The concentration-response curves of compounds of the present invention, obtained in the presence of EC20 of mGluR5 receptor agonist glutamate to determine positive allosteric modulation, were generated using Microsoft Excel with IDBS XLFit add-ins. The raw data file containing all time points was used as the data source in the analysis template. This was saved by the FDSS as a tab-delimited text file. Data were normalized using a static ratio function (F/F0) for each measurement of the total 350 values per well divided by each well's initial value. Data was then reduced as to peak amplitudes (Max-Initial Min) using a time range that starts approximately 1 second after the glutamate EC20 addition and continues for approximately 40 seconds. This is sufficient time to capture the peak amplitude of the cellular Calcium response. Individual amplitudes were expressed as % EMax by multiplying each amplitude by 100 and then dividing the product by the mean of the amplitudes derived from the glutamate ECMax-treated wells. pEC50 values for test compounds were generated by fitting the normalized values versus the log of the test compound concentration (in mol/L) using a 4 parameter logistic equation where none of the parameters were fixed. Each of the three values collected at each concentration of test compound were weighted evenly. Individual values falling outside the 95% prediction limits of the curve fit were automatically excluded from the fit. […]

| Emax (human mGluR5) [%] | pEC50 (human mGluR5) | melting point | SMILES |
| --- | --- | --- | --- |
| 68.5 | 7.26 | 132 °C | CC1CN([C@H](C)c2ccccc2)C(=O)c2cc(COc3ccccc3)nn21 (single isomer, unassigned) [Example B4, (7*S)-7-methyl-2-(phenoxymethyl)-5-[(1R)-1-phenylethyl]-6,7-dihydropyrazolo[1,5-a]pyrazin-4(5H)-one] |
| 70.5 | 7.16 |  | CC1CN(Cc2ccccc2)C(=O)c2cc(COc3cccc(F)c3)nn21 (single isomer, unassigned) [Example B10, (7*S)-5-benzyl-2-[(3-fluorophenoxy)methyl]-7-methyl-6,7-dihydropyrazolo[1,5-a]pyrazin-4(5H)-one] |
| 69.5 | 7.22 | 97.7 °C | CC1CN(Cc2ccccc2)C(=O)c2cc(COc3ccccc3)nn21 (single isomer, unassigned) [Example B14] |
| 65 | 6.28 |  | CC1CN(Cc2ccccc2)C(=O)c2cc(COc3cccc(C#N)c3)nn21 (single isomer, unassigned) [Example B53] |
| 69.5 | 7.03 |  | CC1CN(Cc2ccccc2)C(=O)c2cc(COc3ccc(F)cc3)nn21 (single isomer, unassigned) [Example B54] |
| 69.5 |  |  | Cc1cccc(OCc2cc3n(n2)C(C)CN(Cc2ccccc2)C3=O)c1 (single isomer, unassigned) [Example B55] |
| 68 | 7.04 | 97.7 °C | COc1cccc(CN2CCn3nc(COc4ccccc4)cc3C2=O)n1 [Example B1, 5-[(6-methoxypyridin-2-yl)methyl]-2-(phenoxymethyl)-6,7-dihydropyrazolo[1,5-a]pyrazin-4(5H)-one] |
| 64 | 7.06 | 94.6 °C | O=C1c2cc(COc3ccccc3)nn2CCCN1Cc1ccccc1 [Example B2, 5-benzyl-2-(phenoxymethyl)-5,6,7,8-tetrahydro-4H-pyrazolo[1,5-a][1,4]diazepin-4-one] |
| 68 | 6.52 | 113.4 °C | Cc1cccc(CN2CCn3nc(COc4ccccc4)cc3C2=O)n1 [Example B3, 5-[(6-methylpyridin-2-yl)methyl]-2-(phenoxymethyl)-6,7-dihydropyrazolo[1,5-a]pyrazin-4(5H)-one] |
| 69 | 6.26 | 126.5 °C | O=C1c2cc(COc3ccccc3)nn2CCN1Cc1ccc(F)cn1 [Example B5, 5-[(5-fluoropyridin-2-yl)methyl]-2-(phenoxymethyl)-6,7-dihydropyrazolo[1,5-a]pyrazin-4(5H)-one] |
| 76 | 6.92 |  | O=C1c2cc(COc3ccccc3)nn2CCN1Cc1ncccc1Cl [Example B6, 5-[(3-chloropyridin-2-yl)methyl]-2-(phenoxymethyl)-6,7-dihydropyrazolo[1,5-a]pyrazin-4(5H)-one] |
| 69 | 7.31 | 91.5 °C | O=C1c2cc(COc3ccccc3)nn2CCN1Cc1ccccc1 [Example B7, 5-benzyl-2-(phenoxymethyl)-6,7-dihydropyrazolo[1,5-a]pyrazin-4(5H)-one] |
| 59.5 | 7.51 |  | C[C@H](c1ccccc1)N1CCn2nc(COc3ccccc3)cc2C1=O [Example B8, 2-(phenoxymethyl)-5-[(1R)-1-phenylethyl]-6,7-dihydropyrazolo[1,5-a]pyrazin-4(5H)-one] |
| 62 | 6.46 | 124.7 °C | O=C1c2cc(COc3ccccn3)nn2CCN1Cc1ccccc1 [Example B9, 5-benzyl-2-[(pyridin-2-yloxy)methyl]-6,7-dihydropyrazolo[1,5-a]pyrazin-4(5H)-one] |
| 63 | 7.33 | 104.9 °C | O=C1c2cc(COc3cccc(F)c3)nn2CCN1Cc1ccccc1 [Example B11, 5-benzyl-2-[(3-fluorophenoxy)methyl]-6,7-dihydropyrazolo[1,5-a]pyrazin-4(5H)-one] |
| 59.5 | 7.51 | > 300 °C | COc1cnc(CN2CCn3nc(COc4ccccc4)cc3C2=O)nc1 [Example B12] |
| 60 | 5.78 | > 300 °C (dec.) | CC(c1cccnc1)N1CCn2nc(COc3ccccc3)cc2C1=O (centres unmarked) [Example B13] |
| 69.5 | 5.95 | 75.3 °C | O=C1c2cc(COc3ccccc3)nn2CCN1Cc1ccccn1 [Example B17] |
| 63 | 5.72 | 123.4 °C | O=C1c2cc(COc3ccccc3)nn2CCN1Cc1cccnc1 [Example B18] |
| 69.5 | 7.36 | 110.6 °C | O=C1c2cc(COc3ccccc3)nn2CCN1Cc1ccccc1F [Example B19] |

| Emax (human mGluR5) [%] | pEC50 (human mGluR5) | melting point | SMILES |
| --- | --- | --- | --- |
| 65 | 7.32 | 95 °C | O=C1c2cc(COc3ccccc3)nn2CCN1Cc1cccc(F)c1 [Example B20] |
| 68 | 7.11 | 133.2 °C | O=C1c2cc(COc3ccccc3)nn2CCN1Cc1ccc(F)c(F)c1 [Example B21] |
| 69 | 7.21 | 129.8 °C | O=C1c2cc(COc3ccccc3)nn2CCN1Cc1ccc(F)cc1F [Example B22] |
| 72.5 | 7.50 | 122.8 °C | O=C1c2cc(COc3ccccc3)nn2CCN1Cc1cccc(F)c1F [Example B23] |
| 71 | 6.92 | 113.6 °C | O=C1c2cc(COc3ccccc3)nn2CCN1Cc1cc(F)ccc1F [Example B24] |
| 37 | < 5.00 | 91.2 °C | COc1ccc(CN2CCn3nc(COc4cccc(C)n4)cc3C2=O)cc1 [Example B29] |
| 61 | < 5.00 | > 300 °C | COc1ccc(CN2CCn3nc(COc4cc(C)ccn4)cc3C2=O)cc1 [Example B30] |
| 69 | 6.68 |  | COc1ccc(CN2CCn3nc(COc4ccccc4)cc3C2=O)cc1 [Example B34] |
| 63.5 | 7.39 |  | COc1ccccc1CN1CCn2nc(COc3ccccc3)cc2C1=O [Example B38] |
| 53 | 6.42 |  | N#Cc1cccc(OCc2cc3n(n2)CCN(Cc2ccccc2)C3=O)c1 [Example B43] |
| 73 | 7.03 |  | C[C@@H]1Cn2nc(COc3cccc(F)c3)cc2C(=O)N1Cc1ccccc1 [Example B49] |
| 70 | 6.00 |  | C[C@@H]1Cn2nc(COc3ccccn3)cc2C(=O)N1Cc1ccccc1 [Example B56] |
| 64.5 | 6.73 |  | Cc1cccc(OCc2cc3n(n2)C[C@@H](C)N(Cc2ccccc2)C3=O)c1 [Example B57] |
| 59 | 6.33 |  | C[C@@H]1Cn2nc(COc3cccc(C#N)c3)cc2C(=O)N1Cc1ccccc1 [Example B58] |
| 71 | 6.97 |  | COc1cccc(CN2CCn3nc(COc4ccccc4)cc3C2=O)c1F [Example B59] |
| 75.5 | 7.10 |  | COc1cccc(CN2CCn3nc(COc4ccccc4)cc3C2=O)c1Cl [Example B60] |
| 66 | 7.07 |  | COc1ccc(F)cc1CN1CCn2nc(COc3ccccc3)cc2C1=O [Example B61] |
| 66 | 6.40 |  | O=C1c2cc(COc3ccccc3)nn2CCN1Cc1ncc(F)cn1 [Example B70] |
| 68 | 5.75 |  | O=C1c2cc(COc3ccccc3)nn2CCN1Cc1ccncc1 [Example B102] |
